Experimental data reported in US7754705B2, “Cationic steroid antimicrobial compositions and methods of use” (priority 2006, dated 2010).
Like-named read-outs stand apart in the source and are kept apart here.

Experiments:
vaccinia virus [1] = system: vaccinia virus
vaccinia virus [2] = type: cell-based, vaccinia virus; human keratinocytes (HaCaT)
vaccinia virus [3] = assay: microbe, parasite or virus in culture; conditions: Orthopoxvirus vaccinia, BSC-1, in Chlorocebus sabaeus, 24 h
vaccinia lipid envelope = type: binding, vaccinia virus; keratinocytes

Row | Compound | concentration at which significant viral killing was observed / compound was effective (vaccinia virus [1]) [µM] | % Viability (vaccinia virus [1]; 5 μM) [%] | % Viability (vaccinia virus [1]; 10 μM) [%] | % Viability (vaccinia virus [1]; 25 μM) [%] | % Viability (vaccinia virus [1]; 50 μM) [%] | % Viability (vaccinia virus [1]; 100 μM) [%] | activity against vaccinia virus (vaccinia gene expression) (vaccinia virus [2]) | viability at 5 µM (vaccinia virus [3]) [%] | viability at 10 µM (vaccinia virus [3]) [%] | viability at 25 µM (vaccinia virus [3]) [%] | viability at 50 µM (vaccinia virus [3]) [%] | viability at 100 µM (vaccinia virus [3]) [%] | effectiveness in killing vaccinia virus (in words) (vaccinia virus [1]) | incorporation into vaccinia lipid envelope versus keratinocyte membrane (vaccinia lipid envelope) | % Viability (vaccinia virus [1]; 1 μM) [%]
1 | CCCCCCCCOCCCC(C)C1CCC2C3C(OCCCN)CC4CC(OCCCN)CCC4(C)C3CC(OCCCN)C12C (stereo not drawn) [CSA-7] | 5 | 0.56 | 0.00 | 0.00 | 0.00 | 0.00 | most effective |  |  |  |  |  |  |  | 
2 | CC(CCCO)C1CCC2C3C(OCCCN)CC4CC(OCCCN)CCC4(C)C3CC(OCCCN)C12C (stereo not drawn) [CSA-8] |  | 61.87 | 28.79 | 4.67 | 2.33 | 1.56 |  |  |  |  |  |  |  |  | 
3 | CC(O)[C@H]1CC[C@H]2[C@@H]3[C@H](OCCCN)C[C@@H]4C[C@H](OCCCN)CC[C@]4(C)[C@H]3C[C@H](OCCCN)[C@]12C (stereo partly drawn) [CSA-11] |  |  |  |  |  |  |  | 84.2 | 92.9 | 100 | 97.3 | 98.4 |  |  | 
4 | CCCCCCCCNCCC[C@@H](C)[C@H]1CC[C@H]2[C@@H]3[C@H](OCCCN)C[C@@H]4C[C@H](OCCCN)CC[C@]4(C)[C@H]3C[C@H](OCCCN)[C@]12C [CSA-13] |  | 37.50 | 8.82 | 3.31 | 0.00 | 0.00 | most effective |  |  |  |  |  |  |  | 
5 | CC(CCCN)C1CCC2C3C(OCCCN)CC4CC(OCCCN)CCC4(C)C3CC(OCCCN)C12C (stereo not drawn) [CSA-15] |  | 98.88 | 93.68 | 101.49 | 97.40 | 65.80 |  |  |  |  |  |  |  |  | 
6 | CCCOCCCC(C)C1CCC2C3C(OCCCN)CC4CC(OCCCN)CCC4(C)C3CC(OCCCN)C12C (stereo not drawn) [CSA-17] |  | 53.18 | 19.48 | 3.00 | 0.00 | 0.00 |  |  |  |  |  |  |  |  | 
7 | CC(CCCOS(=O)(=O)O)C1CCC2C3C(OCCCN)CC4CC(OCCCN)CCC4(C)C3CC(OCCCN)C12C (stereo not drawn) [CSA-21] |  | 100.00 | 71.76 | 40.39 | 14.12 | 4.31 |  |  |  |  |  |  |  |  | 
8 | CC(CCCOCCCN)C1CCC2C3C(OCCCN)CC4CC(OCCCN)CCC4(C)C3CC(OCCCN)C12C (stereo not drawn) [CSA-25] |  | 97.40 | 74.35 | 66.91 | 39.41 | 10.04 |  |  |  |  |  |  |  |  | 
9 | CC(CCCO)C1CCC2C3C(NC(=O)CCCCCN)CC4CC(NC(=O)CCCCCN)CCC4(C)C3CC(NC(=O)CCCCCN)C12C (stereo not drawn) [CSA-31] |  | 99.24 | 99.24 | 101.52 | 102.28 | 101.52 |  |  |  |  |  |  | little or no detectable activity |  | 
10 | CCCCCCCCNCCC[C@@H](C)[C@H]1CC[C@H]2[C@@H]3CC[C@@H]4C[C@H](OCCCN)CC[C@]4(C)[C@H]3C[C@H](OCCCN)[C@]12C [CSA-46] |  | 41.89 | 3.77 | 0.38 | 0.00 | 0.00 | most effective |  |  |  |  |  |  |  | 
11 | CC(CCCNCCCNCCCN)C1CCC2C3C(OCCCN)CC4CC(OCCCN)CCC4(C)C3CC(OCCCN)C12C (stereo not drawn) [CSA-54] |  | 103.91 | 101.12 | 95.53 | 101.12 | 95.53 |  |  |  |  |  |  | little or no detectable activity |  | 
12 | CC(CCCNC(=O)CCC(=O)c1ccc2cc(N(C)C)ccc2c1)C1CCC2C3C(OCCCN)CC4CC(OCCCN)CCC4(C)C3CC(OCCCN)C12C (stereo not drawn) [CSA-59] |  | 97.83 | 66.31 | 26.09 | 0.54 | 0.00 |  |  |  |  |  |  |  | preferentially incorporates into the vaccinia lipid envelope over the keratinocyte membrane with a high degree of selectivity | 
13 | CCCCCN(CCCCC)CCCC(C)C1CCC2C3C(OCCCN)CC4CC(OCCCN)CCC4(C)C3CC(OCCCN)C12C.Cl.Cl.Cl.Cl (stereo not drawn) [CSA-90] |  | 23.67 | 14.49 | 7.73 | 4.83 | 0.48 |  |  |  |  |  |  |  |  | 64.73
14 | CCCCCCCCN(CCCCCCCC)CCCC(C)C1CCC2C3C(OCCCN)CC4CC(OCCCN)CCC4(C)C3CC(OCCCN)C12C.Cl.Cl.Cl.Cl (stereo not drawn) [CSA-91] |  | 0.00 | 0.00 | 0.00 | 0.00 | 0.00 |  |  |  |  |  |  | most effective |  | 10.31
15 | CCCCCCCCCCCCCCCCNCCCC(C)C1CCC2C3C(OCCCN)CC4CC(OCCCN)CCC4(C)C3CC(OCCCN)C12C.Cl.Cl.Cl.Cl (stereo not drawn) [CSA-92] |  | 0.00 | 0.00 | 0.00 | 0.00 | 0.00 |  |  |  |  |  |  | most effective |  | 0.00
